Experimental data taken from patent publication US10981894B2, “Melanocortin subtype-2 receptor (MC2R) antagonists and uses thereof” (Crinetics Pharmaceuticals, Inc., priority 2018, dated 2021).

Molecular target: hMC2 receptor (Homo sapiens, UniProt Q01718)
Test: hMC2 membrane binding assay ([125I]ACTH (1-39) Tyr23, SPA)
Design: scale not given here
Conditions: crude hMC2R membranes from CRE-bla-CHO-K1 cells expressing hMC2 receptor and hMRAP; [125I]ACTH (1-39) Tyr23 0.2 nM; 1.5 hours at room temperature; read-out: MC2R binding potency
Summary of the method: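 Ki comes from non-linear regression of SPA scintillation counts. Displacement of 0.2 nM [125I]ACTH(1-39) Tyr23 by compound dose series (usually 0–10,000 nM final) ran 1.5 h at room temperature. Membranes came from CHO-K1 CRE-bla cells stably expressing hMC2R plus hMRAP, bead-coupled in pH 7.4 buffer with 0.2% BSA.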

hMC2 receptor, sequence (Q01718 whole entry): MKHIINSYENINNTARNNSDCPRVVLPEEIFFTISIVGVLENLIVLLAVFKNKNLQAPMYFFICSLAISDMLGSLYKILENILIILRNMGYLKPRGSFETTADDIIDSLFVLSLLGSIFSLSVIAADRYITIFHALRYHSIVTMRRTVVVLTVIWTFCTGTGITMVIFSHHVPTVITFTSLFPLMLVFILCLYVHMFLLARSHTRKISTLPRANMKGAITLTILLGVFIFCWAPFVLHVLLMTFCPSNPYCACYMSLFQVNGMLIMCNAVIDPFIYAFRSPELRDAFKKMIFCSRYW
hMC2 receptor, sequence (Q8TCY5 whole entry partner): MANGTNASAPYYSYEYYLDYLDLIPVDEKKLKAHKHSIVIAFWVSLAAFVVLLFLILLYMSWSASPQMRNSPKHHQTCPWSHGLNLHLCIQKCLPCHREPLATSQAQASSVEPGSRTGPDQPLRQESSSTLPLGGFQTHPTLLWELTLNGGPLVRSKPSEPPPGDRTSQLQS

| Compound | Ki [nM] |
| --- | --- |
| CCOc1ncccc1-c1ccc(N2CCN(C(=O)C3(C(F)(F)F)CCCC3)C[C@H]2CC)c(C(=O)NC[C@H]2CCCN2)n1 [Compound 1-324, 2′-ethoxy-5-[(2R)-2-ethyl-4-[1-(trifluoromethyl)cyclopentanecarbonyl]piperazin-1-yl]-N-{[(2R)-pyrrolidin-2-yl]methyl}-[2,3′-bipyridine]-6-carboxamide] | < 10 |
| CCOc1ncccc1-c1ccc(N2CCN(C(=O)C3(C(F)(F)F)CCCC3)C[C@H]2CC)c(C(=O)NC[C@@H]2CCCN2)n1 [Compound 1-325, 2′-ethoxy-5-[(2R)-2-ethyl-4-[1-(trifluoromethyl)cyclopentanecarbonyl]piperazin-1-yl]-N-{[(2S)-pyrrolidin-2-yl]methyl}-[2,3′-bipyridine]-6-carboxamide] | < 10 |
| CCOc1ncccc1-c1ccc(N2CCN(C(=O)N3CCCC3(C)C(F)(F)F)C[C@H]2CC)c(C(=O)N[C@@H]2CCNC2)n1 (stereo partly drawn) [Compound 1-326, 2′-ethoxy-5-[(2R)-2-ethyl-4-[2-methyl-2-(trifluoromethyl)pyrrolidine-1-carbonyl]piperazin-1-yl]-N-[(3R)-pyrrolidin-3-yl]-[2,3′-bipyridine]-6-carboxamide] | < 10 |
| CCOc1ncccc1-c1ccc(N2CCN(C(=O)C3(C(F)(F)F)CCCC3)C[C@H]2CC)c(C(=O)NC[C@H]2CCN2)n1 [Compound 1-327, N-{[(2R)-azetidin-2-yl]methyl}-2′-ethoxy-5-[(2R)-2-ethyl-4-[1-(trifluoromethyl)cyclopentanecarbonyl]piperazin-1-yl]-[2,3′-bipyridine]-6-carboxamide] | < 10 |
| CCOc1ncccc1-c1ccc(N2CCN(C(=O)C3(CC(F)F)CCC3)C[C@H]2CC)c(C(=O)N[C@@H]2CCNC2)n1 [Compound 1-328, 5-[(2R)-4-[1-(2,2-difluoroethyl)cyclobutanecarbonyl]-2-ethylpiperazin-1-yl]-2′-ethoxy-N-[(3R)-pyrrolidin-3-yl]-[2,3′-bipyridine]-6-carboxamide] | < 10 |
| CCOc1ncccc1-c1ccc(N2CCN(C(=O)C3(C(F)(F)F)CCCC3)C[C@H]2CC)c(C(=O)NC[C@@H]2CCN2)n1 [Compound 1-329, N-{[(2S)-azetidin-2-yl]methyl}-2′-ethoxy-5-[(2R)-2-ethyl-4-[1-(trifluoromethyl)cyclopentanecarbonyl]piperazin-1-yl]-[2,3′-bipyridine]-6-carboxamide] | < 10 |
| CCOc1ncccc1-c1ccc(N2CCN(C(=O)C3(C(F)(F)F)CCCC3)C[C@H]2CC)c(C(=O)NC[C@H]2CCN2C)n1 [Compound 1-330, 2′-ethoxy-5-[(2R)-2-ethyl-4-[1-(trifluoromethyl)cyclopentanecarbonyl]piperazin-1-yl]-N-{[(2R)-1-methylazetidin-2-yl]methyl}-[2,3′-bipyridine]-6-carboxamide] | < 10 |
| CCOc1ncccc1-c1ccc(N2CCN(C(=O)C3(C(F)(F)F)CCCC3)C[C@H]2CC)c(C(=O)NC[C@@H]2CCN2C)n1 [Compound 1-331, 2′-ethoxy-5-[(2R)-2-ethyl-4-[1-(trifluoromethyl)cyclopentanecarbonyl]piperazin-1-yl]-N-{[(2S)-1-methylazetidin-2-yl]methyl}-[2,3′-bipyridine]-6-carboxamide] | < 10 |
| CCOc1ncccc1-c1ccc(N2CCN(C(=O)C3(C(F)(F)F)CCCC3)C[C@H]2CC)c(C(=O)NC[C@@H]2CCCN2C)n1 [Compound 1-332, 2′-ethoxy-5-[(2R)-2-ethyl-4-[1-(trifluoromethyl)cyclopentanecarbonyl]piperazin-1-yl]-N-{[(2S)-1-methylpyrrolidin-2-yl]methyl}-[2,3′-bipyridine]-6-carboxamide] | < 10 |
| CCOc1ncccc1-c1ccc(N2CCN(C(=O)C3(C(F)(F)F)CCCC3)C[C@H]2CC)c(C(=O)NC[C@H]2CCCN2C)n1 [Compound 1-333, 2′-ethoxy-5-[(2R)-2-ethyl-4-[1-(trifluoromethyl)cyclopentanecarbonyl]piperazin-1-yl]-N-{[(2R)-1-methylpyrrolidin-2-yl]methyl}-[2,3′-bipyridine]-6-carboxamide] | < 10 |
| CCOc1ncccc1-c1ccc(N2CCN(C(=O)C3(C(F)(F)F)CCCC3)C[C@H]2CC)c(C(=O)NCC2(OC)CN(C)C2)n1 [Compound 1-334, 2′-ethoxy-5-[(2R)-2-ethyl-4-[1-(trifluoromethyl)cyclopentanecarbonyl]piperazin-1-yl]-N-[(3-methoxy-1-methylazetidin-3-yl)methyl]-[2,3′-bipyridine]-6-carboxamide] | < 10 |
| CCOc1ccccc1-c1ccc(N2CCN(C(=O)[C@H]3CC[C@@H](C(F)(F)F)CC3)C[C@H]2CC)c(C(=O)N[C@@H]2CCNC2)n1 [Compound 1-335, 6-(2-ethoxyphenyl)-3-[(2R)-2-ethyl-4-[cis-4-(trifluoromethyl)cyclohexanecarbonyl]piperazin-1-yl]-N-[(3R)-pyrrolidin-3-yl]pyridine-2-carboxamide] | < 10 |
| CCOc1ccccc1-c1ccc(N2CCN(C(=O)[C@H]3CC[C@@H](C(F)(F)F)CC3)C[C@H]2CC)c(C(=O)N[C@@H]2CCN(C)C2)n1 [Compound 1-336, 6-(2-ethoxyphenyl)-3-[(2R)-2-ethyl-4-[cis-4-(trifluoromethyl)cyclohexanecarbonyl]piperazin-1-yl]-N-[(3R)-1-methylpyrrolidin-3-yl]pyridine-2-carboxamide] | < 10 |
| CCOc1ncccc1-c1ccc(N2CCN(C(=O)C3(C(F)(F)F)CCCC3)C[C@H]2CC)c(C(=O)NCCN2CCC2)n1 [Compound 1-337, N-[2-(azetidin-1-yl)ethyl]-2′-ethoxy-5-[(2R)-2-ethyl-4-[1-(trifluoromethyl)cyclopentanecarbonyl]piperazin-1-yl]-[2,3′-bipyridine]-6-carboxamide] | < 10 |
| CCOc1ccccc1-c1ccc(N2CCN(C(=O)OC3(C(F)(F)F)CCC3)C[C@H]2CC)c(C(=O)N[C@@H]2CCNC2)n1 [Compound 1-338, 1-(trifluoromethyl)cyclobutyl (3R)-4-[6-(2-ethoxyphenyl)-2-{[(3R)-pyrrolidin-3-yl]carbamoyl}pyridin-3-yl]-3-ethylpiperazine-1-carboxylate] | < 10 |
| CCOc1ncccc1-c1ccc(N2CCN(C(=O)C3(C(F)(F)F)CC4CCC3C4)C[C@H]2CC)c(C(=O)NCC2CN(C)C2)n1 (stereo partly drawn) [Compound 1-339, 2′-ethoxy-5-[(2R)-2-ethyl-4-[2-(trifluoromethyl)bicyclo[2.2.1]heptane-2-carbonyl]piperazin-1-yl]-N-[(1-methylazetidin-3-yl)methyl]-[2,3′-bipyridine]-6-carboxamide] | < 10 |
| CCOc1ccccc1-c1ccc(N2CCN(C(=O)C3(C(F)(F)F)CCCC3)C[C@H]2CC)c(C(=O)NCC2CN(C)C2)n1 [Compound 1-340, 6-(2-ethoxyphenyl)-3-[(2R)-2-ethyl-4-[1-(trifluoromethyl)cyclopentanecarbonyl]piperazin-1-yl]-N-[(1-methylazetidin-3-yl)methyl]pyridine-2-carboxamide] | < 10 |
| CCOc1ccccc1-c1ccc(N2CCN(C(=O)C3(C(F)(F)F)CCCC3)C[C@H]2CC)c(C(=O)N[C@@H]2CCN(C)C2)n1 [Compound 1-341, 6-(2-ethoxyphenyl)-3-[(2R)-2-ethyl-4-[1-(trifluoromethyl)cyclopentanecarbonyl]piperazin-1-yl]-N-[(3R)-1-methylpyrrolidin-3-yl]pyridine-2-carboxamide] | < 10 |
| CCOc1ccccc1-c1ccc(N2CCN(C(=O)N3CCC[C@H]3C(F)(F)F)C[C@H]2CC)c(C(=O)N[C@@H]2CCNC2)n1 [Compound 1-342, 6-(2-ethoxyphenyl)-3-[(2R)-2-ethyl-4-[(2S)-2-(trifluoromethyl)pyrrolidine-1-carbonyl]piperazin-1-yl]-N-[(3R)-pyrrolidin-3-yl]pyridine-2-carboxamide] | < 10 |
| CCOc1ccccc1-c1ccc(N2CCN(C(=O)N3CCC[C@H]3C(F)(F)F)C[C@H]2CC)c(C(=O)N[C@H]2CCNC2)n1 [Compound 1-343, 6-(2-ethoxyphenyl)-3-[(2R)-2-ethyl-4-[(2S)-2-(trifluoromethyl)pyrrolidine-1-carbonyl]piperazin-1-yl]-N-[(3S)-pyrrolidin-3-yl]pyridine-2-carboxamide] | < 10 |
| CCOc1ccccc1-c1ccc(N2CCN(C(=O)C3(C(F)(F)F)CCC3)C[C@H]2CC)c(C(=O)N[C@@H]2CCN(C)C2)n1 [Compound 1-344, 6-(2-ethoxyphenyl)-3-[(2R)-2-ethyl-4-[1-(trifluoromethyl)cyclobutanecarbonyl]piperazin-1-yl]-N-[(3R)-1-methylpyrrolidin-3-yl]pyridine-2-carboxamide] | < 10 |
| CCOc1ncccc1-c1ccc(N2CCN(C(=O)N3CCC[C@H]3c3ccccc3)C[C@H]2CC)c(C(=O)N[C@@H]2CCNC2)n1 [Compound 1-345, 2′-ethoxy-5-[(2R)-2-ethyl-4-[(2S)-2-phenylpyrrolidine-1-carbonyl]piperazin-1-yl]-N-[(3R)-pyrrolidin-3-yl]-[2,3′-bipyridine]-6-carboxamide] | < 10 |
| CCOc1ncccc1-c1ccc(N2CCN(C(=O)N3CCc4cccc(Cl)c43)C[C@H]2CC)c(C(=O)N[C@@H]2CCNC2)n1 [Compound 1-346, 5-[(2R)-4-(7-chloro-2,3-dihydro-1H-indole-1-carbonyl)-2-ethylpiperazin-1-yl]-2′-ethoxy-N-[(3R)-pyrrolidin-3-yl]-[2,3′-bipyridine]-6-carboxamide] | < 10 |
| CCOc1ccccc1-c1ccc(N2CCN(C(=O)OC(C(C)(C)C)C(F)(F)F)C[C@H]2CC)c(C(=O)N[C@@H]2CCNC2)n1 (stereo partly drawn) [Compound 1-348, 1,1,1-trifluoro-3,3-dimethylbutan-2-yl (3R)-4-[6-(2-ethoxyphenyl)-2-{[(3R)-pyrrolidin-3-yl]carbamoyl}pyridin-3-yl]-3-ethylpiperazine-1-carboxylate] | < 10 |
